In US20250098679A1, “HERBICIDAL PYRIDONE DERIVATIVES” (SYNGENTA CROP PROTECTION AG, priority 2021, published 2025):

How the values were obtained:
Format in all cases: in vivo
Settings in all cases: evaluated after 13 days
[1] = system: Ipomoea hederacea (IPOHE); experiment: Post-emergence Test, Ipomoea hederacea (IPOHE); parameters: key to percentage damage caused to the plant, IPOHE (five-point scale): 5=81-100%, 4=61-80%, 3=41-60%, 2=21-40%, 1=0-20% damage
Outline: (§1)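 Percent plant damage was rated 13 days post-application on a 1–5 scale (1=0-20%, 5=81-100%). Application used an aqueous acetone (50:50)/0.5% Tween 20 spray, normally 1000 g/ha, with controlled glasshouse conditions (24/16 °C, 14 h light, 65% humidity).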

[2] = system: Amaranthus palmeri (AMAPA); experiment: Post-emergence Test, Amaranthus palmeri (AMAPA); parameters: key: 5=81-100%, 4=61-80%, 3=41-60%, 2=21-40%, 1=0-20% damage
Outline: as §1

Setaria faberi (SETFA) [3] = experiment: Post-emergence Test, Setaria faberi (SETFA); parameters: key to percentage damage caused to the plant, SETFA (five-point scale): 5=81-100%, 4=61-80%, 3=41-60%, 2=21-40%, 1=0-20% damage
Outline: as §1

[4] = system: Amaranthus retoflexus (AMARE); experiment: Pre-emergence Test, Amaranthus retoflexus (AMARE)
[5] = system: Amaranthus retoflexus (AMARE); experiment: Post-emergence Test, Amaranthus retoflexus (AMARE); parameters: key to percentage damage caused to the plant, AMARE (five-point scale): 5=81-100%, 4=61-80%, 3=41-60%, 2=21-40%, 1=0-20% damage
Outline: as §1

[6] = system: Ipomoea hederacea (IPOHE); experiment: Pre-emergence Test, Ipomoea hederacea (IPOHE)
Zea mays (ZEAMX) [7] = experiment: Post-emergence Test, Zea mays (ZEAMX); parameters: key to percentage damage caused to the plant, ZEAMX (five-point scale): 5=81-100%, 4=61-80%, 3=41-60%, 2=21-40%, 1=0-20% damage
Outline: as §1

[8] = system: Amaranthus palmeri (AMAPA); experiment: Pre-emergence Test, Amaranthus palmeri (AMAPA)
[9] = system: Echinochloa crus-galli (ECHCG); experiment: Post-emergence Test, Echinochloa crus-galli (ECHCG); parameters: key to percentage damage caused to the plant, ECHCG (five-point scale): 5=81-100%, 4=61-80%, 3=41-60%, 2=21-40%, 1=0-20% damage
Outline: as §1

Setaria faberi (SETFA) [10] = experiment: Pre-emergence Test, Setaria faberi (SETFA)
[11] = system: Echinochloa crus-galli (ECHCG); experiment: Pre-emergence Test, Echinochloa crus-galli (ECHCG)
Zea mays (ZEAMX) [12] = experiment: Pre-emergence Test, Zea mays (ZEAMX)

| Structure (SMILES) | percentage damage caused to the plant, IPOHE (five-point scale) ([1]; 250 g/Ha) | percentage damage caused to the plant, IPOHE (five-point scale) ([1]; 1000 g/ha) | percentage damage caused to the plant, AMAPA (five-point scale) ([2]; 250 g/Ha) | percentage damage caused to the plant, AMAPA (five-point scale) ([2]; 1000 g/ha) | percentage damage caused to the plant, SETFA (five-point scale) (Setaria faberi (SETFA) [3]; 250 g/Ha) | percentage damage caused to the plant, SETFA (five-point scale) (Setaria faberi (SETFA) [3]; 1000 g/ha) | Pre-emergence Test AMARE, percentage damage caused to the plant (five-point scale) ([4]; 1000 g/ha) | percentage damage caused to the plant, AMARE (five-point scale) ([5]; 250 g/Ha) | percentage damage caused to the plant, AMARE (five-point scale) ([5]; 1000 g/ha) | Pre-emergence Test IPOHE, percentage damage caused to the plant (five-point scale) ([6]; 1000 g/ha) | percentage damage caused to the plant, ZEAMX (five-point scale) (Zea mays (ZEAMX) [7]; 250 g/Ha) | percentage damage caused to the plant, ZEAMX (five-point scale) (Zea mays (ZEAMX) [7]; 1000 g/ha) | Pre-emergence Test AMAPA, percentage damage caused to the plant (five-point scale) ([8]; 1000 g/ha) | percentage damage caused to the plant, ECHCG (five-point scale) ([9]; 250 g/Ha) | percentage damage caused to the plant, ECHCG (five-point scale) ([9]; 1000 g/ha) | Pre-emergence Test SETFA, percentage damage caused to the plant (five-point scale) (Setaria faberi (SETFA) [10]; 1000 g/ha) | Pre-emergence Test ECHCG, percentage damage caused to the plant (five-point scale) ([11]; 1000 g/ha) | Pre-emergence Test ZEAMX, percentage damage caused to the plant (five-point scale) (Zea mays (ZEAMX) [12]; 1000 g/ha) | Pre-emergence Test AMARE, percentage damage caused to the plant (five-point scale) ([4]; 250 g/Ha (*)) | Pre-emergence Test IPOHE, percentage damage caused to the plant (five-point scale) ([6]; 250 g/Ha (*)) | also measured |
| --- | --- | --- | --- | --- | --- | --- | --- | --- | --- | --- | --- | --- | --- | --- | --- | --- | --- | --- | --- | --- | --- |
| CCn1c(Cn2ccc(CC#N)n2)cc(=O)c(C(=O)O)c1-c1ccc(Cl)c(Cl)c1 [Compound 175, 6-[[3-(cyanomethyl)pyrazol-1-yl]methyl]-2-(3,4-dichlorophenyl)-1-ethyl-4-oxo-pyridine-3-carboxylic acid] | 1 (1=0-20%) | 2 (2=21-40%) | 0 | 0 | 0 | 3 (3=41-60%) | 0 | 0 | 0 | 1 (1=0-20%) | 0 | 1 (1=0-20%) | 0 | 1 (1=0-20%) | 2 (2=21-40%) | 3 (3=41-60%) | 1 (1=0-20%) | 0 | – | – | – |
| CCn1c(Cn2ncc(Cl)c2C2CC2)cc(=O)c(C(=O)O)c1-c1ccc(Cl)c(Cl)c1 [Compound 93, 6-[(4-chloro-5-cyclopropyl-pyrazol-1-yl)methyl]-2-(3,4-dichlorophenyl)-1-ethyl-4-oxo-pyridine-3-carboxylic acid] | 1 (1=0-20%) | – | 1 (1=0-20%) | – | 1 (1=0-20%) | – | – | 1 (1=0-20%) | – | – | 1 (1=0-20%) | – | – | 2 (2=21-40%) | – | – | – | – | 1 (1=0-20%) | 0 | Pre-emergence Test AMAPA, percentage damage caused to the plant (five-point scale) ([8]; 250 g/Ha (*)): 2 (2=21-40%); Pre-emergence Test SETFA, percentage damage caused to the plant (five-point scale) (Setaria faberi (SETFA) [10]; 250 g/Ha (*)): 0; Pre-emergence Test ECHCG, percentage damage caused to the plant (five-point scale) ([11]; 250 g/Ha (*)): 0; Pre-emergence Test ZEAMX, percentage damage caused to the plant (five-point scale) (Zea mays (ZEAMX) [12]; 250 g/Ha (*)): 0 |
| CCn1c(Cn2cc(Cl)c(C)n2)cc(=O)c(C(=O)O)c1-c1ccc(Cl)c(Cl)c1 [Compound 89, 6-[(4-chloro-3-methyl-pyrazol-1-yl)methyl]-2-(3,4-dichlorophenyl)-1-ethyl-4-oxo-pyridine-3-carboxylic acid] | – | 3 (3=41-60%) | 1 (1=0-20%) | 3 (3=41-60%) | 2 (2=21-40%) | 4 (4=61-80%) | 2 (2=21-40%) | 1 (1=0-20%) | 1 (1=0-20%) | 4 (4=61-80%) | 0 | 3 (3=41-60%) | 3 (3=41-60%) | 4 (4=61-80%) | 4 (4=61-80%) | 4 (4=61-80%) | 5 (5=81-100%) | 1 (1=0-20%) | 0 | 3 (3=41-60%) | Pre-emergence Test AMAPA, percentage damage caused to the plant (five-point scale) ([8]; 250 g/Ha (*)): 0; Pre-emergence Test SETFA, percentage damage caused to the plant (five-point scale) (Setaria faberi (SETFA) [10]; 250 g/Ha (*)): 3 (3=41-60%); Pre-emergence Test ECHCG, percentage damage caused to the plant (five-point scale) ([11]; 250 g/Ha (*)): 4 (4=61-80%); Pre-emergence Test ZEAMX, percentage damage caused to the plant (five-point scale) (Zea mays (ZEAMX) [12]; 250 g/Ha (*)): 0 |
| CCn1c(Cn2nc(C(F)(F)F)cc2O)cc(=O)c(C(=O)O)c1-c1ccc(Cl)c(Cl)c1 [Compound 147, 2-(3,4-dichlorophenyl)-1-ethyl-6-[[5-hydroxy-3-(trifluoromethyl)pyrazol-1-yl]methyl]-4-oxo-pyridine-3-carboxylic acid] | – | 1 (1=0-20%) | – | 0 | – | 0 | 0 | – | 1 (1=0-20%) | 0 | – | 0 | 1 (1=0-20%) | – | 0 | 1 (1=0-20%) | 0 | 0 | – | – | – |
| CCn1c(Cn2cnc([N+](=O)[O-])c2)cc(=O)c(C(=O)O)c1-c1ccc(Cl)c(Cl)c1 [Compound 50, 2-(3,4-dichlorophenyl)-1-ethyl-6-[(4-nitroimidazol-1-yl)methyl]-4-oxo-pyridine-3-carboxylic acid] | – | 2 (2=21-40%) | – | 3 (3=41-60%) | – | 2 (2=21-40%) | 1 (1=0-20%) | – | 0 | 0 | – | 1 (1=0-20%) | 1 (1=0-20%) | – | 1 (1=0-20%) | 0 | 1 (1=0-20%) | 0 | – | – | – |
